Test results taken from US20210063414A1, “METHODS FOR PREVENTING AND/OR TREATING BONE LOSS CONDITIONS BY MODULATING IRISIN” (Dana-Farber Cancer Institute, Inc., priority 2018, published 2021).
“Also recorded” adds a separate entry of the source.

Columns and labels:
[1] = test system: primary inguinal fat cells; assay: Ucp1 mRNA in primary inguinal fat cells; type: cell-based, mice; settings: 10 μM peptide
Experimental: FIG. 18A-FIG. 18B show mRNA and protein levels of indicated genes. 1 mg/kg irisin was injected to 8-week old mice every other day for 6 days. mRNA levels of indicated genes in inguinal fat were analyzed by qRT-PCR. Cyclophilin was used for housekeeping gene (FIG. 18A). Inguinal fats were also lysed to detect the indicated protein level using immunoblot analysis (FIG. 18B). FIGS. 18C and 18D show mRNA and protein levels of indicated genes. Mice were treated and analyzed as (A-B) with addition of coinjection of […] control RGD peptide or cyclo RGDyK (cRGDyK). mRNA levels of indicated genes in inguinal fat were analyzed by qRT-PCR. Cyclophilin was used for house-keeping gene (FIG. 18C). Inguinal fats were also lysed to detect the indicated protein level using immunoblot analysis (FIG. 18D). […] Ucp1 mRNA level was analyzed by qRT-PCR. […]
Inguinal fat tissue from 6 weeks old mice was dissected and washed with PBS, minced and digested for 1 hour at 37° C. in PBS containing 10 mM CaCl2, 2.4 U/ml dispase II (Roche) and 10 mg/ml collagenase D (Roche). […] After that, cells were maintained in 1 μM rosiglitazone in the presence of 0, 0.5, 5 or 50 ng/ml recombinant […] his-tag irisin protein for 4 days with medium change every other day. mRNA levels were analyzed as described in gene expression analysis. […]

MLO-Y4 cells = assay: Integrin-like signaling (pFAK, pZyxin, pAKT, pCREB) in MLO-Y4 cells, immunoblot; type: cell-based; settings: MLO-Y4, inhibitor pre-treatment 10 minutes before irisin
Experimental: Integrin heterodimer binds to its ligand. The interaction results in phosphorylation of FAK and Zyxin, followed by phosphorylation of AKT (at T308) and CREB. PM is plasma membrane. FIG. 2C and FIG. 2D show the immunoblots. MLO-Y4 cells were seeded and incubated until 60% cell density. The cells were incubated with serum free medium (FreeStyle™ 293 medium) for 4 hours and were treated for indicated time with 10 nM norepinephrine or irisin (FIG. 2C) or indicated concentrations of irisin for 10 minutes (FIG. 2D). Cells were lysed to detect the indicated protein level using immunoblot analysis.
Certain materials and methods were used to generate the results described herein. For example, the data shown in FIG. 1A resulted from MLO-Y4 (an osteocyte-like cell line) cells treated with the indicated concentration of irisin and hydrogen peroxide for 4 hours. Cells were stained with Hoechst 33342 (ThermoFisher Scientific, catalog number H3570) and Eth-D1 (ThermoFisher Scientific, catalog number E1169) and analyzed to determine the percentage of cell death using ImageJ. The data shown in FIG. 2D resulted from MLO-Y4 incubated in serum free medium (FreeStyle™ 293 expression medium, ThermoFisher Scientific, catalog number 12338018) for 4 hours followed by treatment of indicated concentrations of irisin for 10 minutes. Cells were lysed to detect the indicated protein level using immunoblot analysis (Cell Signaling Technology, catalog numbers 3283S, 3285S, 8467S, 3553S, 9198S, and 9104S; Abcam, catalog number ab49900-100ul). The data shown in FIG. 3 resulted from 3T3-F442A cells incubated in serum free medium for 4 hours followed by treatment of indicated concentrations of irisin for 10 minutes. Cells were lysed by RIPA buffer to detect the indicated protein level using immunoblot analysis. The data shown in FIG. 4 were generated from 100 nM flag-tagged irisin (Enzo life sciences, catalog number ADI-908-307-3010) incubated with 5 nM of the indicated 6 his-tag integrins (R & D Systems Inc., catalog numbers 7064-AB-025, 5668-A4-050, 5438-A9-050, 6357-AB-050, and 6579-AV-025) in the presence of RGDS peptide (R & D Systems Inc., catalog number 3498/10) or its control peptide (Enzo Life Sciences, catalog Number BML-P701-0005) followed by immunoprecipitation using 6 his-tag beads (ThermoFisher Scientific, catalog number R901-01). Co-precipitated irisin was analyzed by immunoblot analysis against flag tag (Sigma Aldrich, catalog number A8592). The data shown in FIGS. 5A and 5B were generated from MLO-Y4 cells treated and analyzed as in the experiments used to generate the data shown in FIG. 2D, except that pre-treatment of 100 nM RGDS (FIG. 5A) or echistatin (R & D Systems Inc., catalog number 3202/100U) (FIG. 5B) for 10 minutes was performed before irisin treatment. The data shown in FIGS. 6A and 6B were generated from MLO-Y4 cells incubated in serum free medium for 3 hours followed by treatment of indicated time of 10 nM irisin for 16 hours. RNAs were extracted from the cells and the sclerostin mRNA level was analyzed by qPCR (FIG. 6A) or treated and analyzed as in (FIG. 6A), except that pre-treatment of 10 μM RGDS, RGDyK (Selleck, catalog number S7844), or echistatin was performed for 10 minutes before irisin treatment. The data shown in FIGS. 7A and 7B were generated from 8 week-old mice injected with the indicated dose of irisin for 6 days. Tibias were collected and treated with collagenase to obtain mRNA from the osteocyte-enriched bones. Sclerostin mRNA level was analyzed by qPCR (FIG. 7A). Serum was collected to analyze the sclerostin protein level using ELISA kit (R&D Systems Inc., catalog number MSST00) (FIG. 7B). The data shown in FIG. 8 were generated from 8 week-old mice injected with the indicated dose of irisin for 6 days. Epididymal fats were collected, RNAs were extracted from the tissues, and mRNA levels of the indicated genes were analyzed by qPCR. […]

Molecule | effect on irisin-induced gene expression (Ucp1) [1] | effect of integrin inhibitor on irisin-induced signaling (phosphorylation of FAK, Zyxin, CREB) (MLO-Y4 cells)
N=C(N)NCCC[C@@H]1NC(=O)[C@H](CCCCN)NC(=O)[C@@H](Cc2ccc(O)cc2)NC(=O)[C@H](CC(=O)O)NC(=O)CNC1=O [cyclo RGDyK] | prevented irisin-induced gene expression | block irisin-induced signaling
RGDS peptide: classical integrin competitive inhibitory peptide, commercially available form of the RGD peptide |  | most irisin signaling in osteocytes was inhibited; also recorded: dramatically suppressed
